Experimental data taken from ChEMBL document CHEMBL1201862, “PubChem BioAssay data set” (2004).
Calls of active or inactive are those of the source.

Assays:
HEK293 [1] = assay: inhibition of NOD1-driven NF-kB reporter – cell-based, luminescence, uHTS, primary screen (AID 1578); assay type: functional; conditions: Homo sapiens
[2] = molecular target: T1, RNA-binding protein pos-1 (Caenorhabditis elegans, UniProt G5EF15); assay: disruptors of C. elegans POS-1 RNA interaction – biochemical, fluorescence polarization, dose response (AID 1964);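 further: purified POS-1 fused to maltose binding protein made in E. coli; potency of compounds blocking POS-1 binding to fluorescent RNA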
T1 sequence (G5EF15 whole entry): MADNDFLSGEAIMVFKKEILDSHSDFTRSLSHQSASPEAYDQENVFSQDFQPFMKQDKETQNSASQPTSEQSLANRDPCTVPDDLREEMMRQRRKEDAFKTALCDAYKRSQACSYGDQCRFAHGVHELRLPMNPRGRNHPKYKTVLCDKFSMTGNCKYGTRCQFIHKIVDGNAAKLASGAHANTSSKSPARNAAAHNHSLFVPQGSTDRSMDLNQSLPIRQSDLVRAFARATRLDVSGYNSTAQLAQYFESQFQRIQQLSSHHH

HEK293 [3] = assay: cells; assay type: functional, cell-based; conditions: Homo sapiens
[4] = molecular target: T2, Zinc finger protein mex-5 (Caenorhabditis elegans, UniProt Q9XUB2); assay: potency of MEX-5 RNA-binding blockers – biochemical, C. elegans, fluorescence polarization, dose response (AID 1960)
T2 sequence (Q9XUB2 whole entry): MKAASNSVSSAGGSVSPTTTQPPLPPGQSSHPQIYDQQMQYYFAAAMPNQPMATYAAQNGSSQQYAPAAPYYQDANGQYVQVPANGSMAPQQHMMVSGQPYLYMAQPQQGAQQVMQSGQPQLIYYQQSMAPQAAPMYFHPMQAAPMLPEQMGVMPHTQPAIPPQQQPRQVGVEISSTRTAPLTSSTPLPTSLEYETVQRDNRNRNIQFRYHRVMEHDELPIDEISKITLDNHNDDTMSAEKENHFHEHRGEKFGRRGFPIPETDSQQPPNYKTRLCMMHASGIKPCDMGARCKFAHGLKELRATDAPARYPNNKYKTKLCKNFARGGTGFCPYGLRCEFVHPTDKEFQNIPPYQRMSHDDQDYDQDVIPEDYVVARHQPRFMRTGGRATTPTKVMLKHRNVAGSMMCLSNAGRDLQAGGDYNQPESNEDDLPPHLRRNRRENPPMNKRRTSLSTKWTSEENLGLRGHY

HEK293 [5] = assay: cells; assay type: functional, cell-based; conditions: Homo sapiens; remark: listed apart in the source
HEK293 [6] = assay: NOD2 signaling inhibitors in MDP-stimulated cells, cell-based, uHTS, luminescence (AID 2001); assay type: functional; conditions: Homo sapiens
[7] = P. falciparum Dd2 growth inhibitors, dose response, SYBR Green, cherry-picked samples (AID 1159567); assay type: functional, cell-based
[8] = toxicity to human hepatoma HepG2 cells – cell-based, cherry-picked samples, cytotoxicity control, dose response (AID 1159577); assay type: functional
HEK293 [9] = assay: EBV LMP1 TES2 canonical NF-kB signalling blockers – cell-based, HEK293, luciferase, cherry-pick, dose response (AID 588343); assay type: functional; conditions: Homo sapiens
[10] = blockers of HIV-1 envelope-mediated cell-cell fusion – cherry-pick, dose response (AID 652057); assay type: functional, cell-based
[11] = viability loss in CEM21 cells – cell-based, CellTiter-Glo luminescence, cherry-picked, cytotoxicity control for viral fusion inhibitor project, dose response (AID 652042); assay type: functional;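 further: potency for signal decrease meaning cytotoxicity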
[12] = blockers of HIV-1 ZM109 envelope-driven cell-cell fusion – HeLa effector, CEM target cells, luciferase, cherry-pick, dose response (AID 652058); assay type: functional, cell-based;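 further: luciferase signal from HIV-1 Env mediated cell-cell fusion of effector and target cells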
[13] = off-target signal loss in HeLa-CEM21 co-culture – HeLa F-luc CTL cells, cherry-picked, counter-screen for HIV-1 Env fusion inhibitor project, dose response (AID 652040); assay type: functional, cell-based;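 further: potency for signal decrease marking cytotoxic or nonspecific inhibition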
[14] = HIV-1 AD8 envelope cell-cell fusion blockers – cherry-pick, dose response (AID 652062); assay type: functional, cell-based;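 further: luciferase signal from cell-cell fusion driven by HIV-1 clade B AD8 Env; potency is for inhibitors of fusion seen as a drop in luminescence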
HeLa = assay: ATP-based viability loss in HeLa cells – cell-based, CellTiter-Glo luminescence, cherry-pick samples, cytotoxicity control for MITF activator project, dose response (AID 540259); assay type: functional; conditions: Homo sapiens
[15] = molecular target: Luciferin 4-monooxygenase (Photinus pyralis, UniProt P08659); assay: inhibition of purified Photinus pyralis luciferase – biochemical, luminescence, dose response (AID 1891)
[16] = Luminescence Cell-Based Dose Confirmation HTS to Identify Inhibitors of Platelet Dense Granule Release. [Related pubchem assays: 1663 (Primary HTS), 1678 (Summary of Project)]; assay type: functional
[17] = molecular target: SWI/SNF-related matrix-associated actin-dependent regulator of chromatin subfamily A member 2 (Homo sapiens, UniProt P51531); assay: Luminescence-based cell-based high throughput dose response assay to identify activators of the function of SWI/SNF related, matrix associated, actin dependent regulator of chromatin, subfamily a, member 2 (SMARCA2, BRM).; assay type: functional
[18] = Counterscreen for activators of the function of SWI/SNF related, matrix associated, actin dependent regulator of chromatin, subfamily a, member 2 (SMARCA2, BRM): Luminescence-based cell-based high throughput dose response assay to identify non-selective compounds using the VP16 reporter assay.; assay type: functional
[19] = general mammalian cell viability loss – activator set, cherry-pick, cytotoxicity control for miR-122 modulator project, dose response (AID 720690); assay type: functional, cell-based;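 further: HEK293T human cells scored for general mammalian cytotoxicity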
[20] = Trypanosoma cruzi growth suppression in host cells – NIH3T3 host cells, beta-gal luminescence, confirmation (AID 2044); assay type: functional, cell-based;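 further: intracellular parasites grown in NIH/3T3 mouse fibroblasts as host cells; luminescent beta-galactosidase reporter signal from transgenic T. cruzi replicating inside host cells; inhibitors lower the luminescence signal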
[21] = NIH3T3 cell viability loss – ATP luminescence, mouse fibroblasts, counter-screen, dose response (AID 2010); assay type: functional, cell-based;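 further: cells exposed to compound for about 90 hours before reading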

Chain of SWI/SNF-related matrix-associated actin-dependent regulator of chromatin subfamily A member 2 (P51531 whole entry): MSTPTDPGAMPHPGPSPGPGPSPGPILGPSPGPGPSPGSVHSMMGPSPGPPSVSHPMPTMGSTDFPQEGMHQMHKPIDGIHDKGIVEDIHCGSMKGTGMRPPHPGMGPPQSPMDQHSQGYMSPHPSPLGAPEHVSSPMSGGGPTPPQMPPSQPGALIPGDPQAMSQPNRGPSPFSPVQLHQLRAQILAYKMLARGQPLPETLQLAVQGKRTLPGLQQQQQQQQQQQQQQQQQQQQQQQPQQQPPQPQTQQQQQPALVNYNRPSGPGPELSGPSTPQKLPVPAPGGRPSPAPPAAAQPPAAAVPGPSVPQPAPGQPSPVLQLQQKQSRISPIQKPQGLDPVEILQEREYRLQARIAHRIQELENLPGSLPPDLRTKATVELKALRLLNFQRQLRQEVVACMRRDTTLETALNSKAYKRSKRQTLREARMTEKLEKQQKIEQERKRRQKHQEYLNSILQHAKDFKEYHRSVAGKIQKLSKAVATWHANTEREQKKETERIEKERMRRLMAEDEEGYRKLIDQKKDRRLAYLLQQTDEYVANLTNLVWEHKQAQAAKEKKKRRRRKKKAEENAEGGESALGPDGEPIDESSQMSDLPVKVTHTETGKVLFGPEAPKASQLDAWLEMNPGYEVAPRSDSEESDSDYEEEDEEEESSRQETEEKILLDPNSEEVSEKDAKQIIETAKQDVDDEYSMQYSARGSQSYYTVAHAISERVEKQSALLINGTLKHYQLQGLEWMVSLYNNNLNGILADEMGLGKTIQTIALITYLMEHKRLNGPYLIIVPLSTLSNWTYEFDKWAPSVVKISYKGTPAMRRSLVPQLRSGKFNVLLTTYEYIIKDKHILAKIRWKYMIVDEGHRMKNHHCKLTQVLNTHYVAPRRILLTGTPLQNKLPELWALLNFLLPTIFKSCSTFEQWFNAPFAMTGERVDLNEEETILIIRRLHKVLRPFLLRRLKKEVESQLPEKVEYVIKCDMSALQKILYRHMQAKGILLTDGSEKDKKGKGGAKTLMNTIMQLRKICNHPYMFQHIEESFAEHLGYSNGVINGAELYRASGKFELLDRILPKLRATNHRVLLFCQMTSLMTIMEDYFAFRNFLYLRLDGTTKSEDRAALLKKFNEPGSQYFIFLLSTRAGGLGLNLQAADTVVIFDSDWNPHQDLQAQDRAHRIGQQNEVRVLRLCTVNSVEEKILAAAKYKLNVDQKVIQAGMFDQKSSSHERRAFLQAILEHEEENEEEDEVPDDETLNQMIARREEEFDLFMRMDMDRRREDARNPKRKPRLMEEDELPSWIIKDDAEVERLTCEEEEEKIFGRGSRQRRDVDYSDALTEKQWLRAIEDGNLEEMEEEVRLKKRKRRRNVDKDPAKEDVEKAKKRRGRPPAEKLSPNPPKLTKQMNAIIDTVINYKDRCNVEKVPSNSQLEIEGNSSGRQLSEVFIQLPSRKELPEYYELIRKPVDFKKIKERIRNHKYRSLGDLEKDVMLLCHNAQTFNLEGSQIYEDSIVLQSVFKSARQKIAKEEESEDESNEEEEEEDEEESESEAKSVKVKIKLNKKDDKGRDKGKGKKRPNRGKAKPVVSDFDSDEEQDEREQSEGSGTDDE
Chain of Luciferin 4-monooxygenase (P08659 whole entry): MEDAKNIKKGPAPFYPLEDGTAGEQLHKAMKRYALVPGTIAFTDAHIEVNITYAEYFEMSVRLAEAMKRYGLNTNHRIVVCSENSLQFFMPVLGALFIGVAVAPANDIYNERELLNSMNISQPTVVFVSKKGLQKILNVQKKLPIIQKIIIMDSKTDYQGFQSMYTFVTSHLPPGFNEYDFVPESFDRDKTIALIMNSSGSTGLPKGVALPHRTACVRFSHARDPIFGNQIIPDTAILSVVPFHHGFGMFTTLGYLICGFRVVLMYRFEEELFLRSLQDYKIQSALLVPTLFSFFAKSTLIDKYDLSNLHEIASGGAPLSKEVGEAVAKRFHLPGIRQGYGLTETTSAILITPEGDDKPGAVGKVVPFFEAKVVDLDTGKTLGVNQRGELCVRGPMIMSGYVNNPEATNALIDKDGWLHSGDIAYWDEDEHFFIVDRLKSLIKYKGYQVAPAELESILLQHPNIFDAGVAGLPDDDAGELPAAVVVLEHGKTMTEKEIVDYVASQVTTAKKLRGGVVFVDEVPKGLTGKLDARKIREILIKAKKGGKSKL

In the case of `COc1ccc(/C=C/C(=O)c2c(C)cc(C)nc2O)c2ccccc12`, the EC50 (HEK293 [1]) is reported as 4.53 µM (active), the EC50 [2] is reported as > 300 µM (not active) and the IC50 (HEK293 [3]) is reported as 10.1 µM (active). For the same compound, the EC50 [4] was > 300 µM (not active), the IC50 (HEK293 [5]) was > 20 µM (inactive) and the IC50 (HEK293 [6]) was 12.4 µM (inactive).
With `O=C(C[C@H]1C[C@H]2c3cc(NS(=O)(=O)c4ccc(F)cc4)ccc3O[C@H]2[C@H](CO)O1)NCc1ccc(Cl)cc1` the AC50 [7] was 6.82 µM (active) and the AC50 [8] was > 39 µM (inactive).
With `C=CCn1c(SCc2csc(C)n2)nc2sc3c(c2c1=O)CCCC3` the AC50 (HEK293 [9]) was 35.8 µM (active).
For `CC[C@@]12C(=O)N(c3cccc(Cl)c3)C(=O)N1[C@H](c1ccc(Br)cc1)[C@@H]1C(=O)N(C(C)(C)C)C(=O)[C@@H]12`, the AC50 [10] was < 0.26 µM (active), the AC50 [11] was 65.5 µM (active) and the AC50 [12] was < 0.26 µM (active). For the same compound, the AC50 [13] was < 0.26 µM (active) and the AC50 [14] was 0.342 µM (active).
For `Nc1ccc2oc(=O)c3ccccc3c2c1`, the AC50 (HeLa) was 178 µM (active).
With `CCN(CC)c1ccc(Nc2cc3n(c(=O)n2)CCc2cc(OC)c(OC)cc2-3)cc1` the EC50 [15] was > 112 µM (not active), the EC50 [16] was > 112 µM (not active) and the EC50 [17] was > 91.2 µM (inactive). The EC50 [18] was > 91.2 µM (inactive).
For `CC(=NNC(=S)Nc1ccccc1)c1ccccn1`, the AC50 (HEK293 [9]) was 0.0995 µM (active).
With `CC(C)CC#Cc1ccc([C@H]2[C@@H](CO)N3CCCCN(S(=O)(=O)Cc4ccccc4)C[C@H]23)cc1` the AC50 [19] was 15 µM (active), the AC50 [7] was 5.43 µM (active) and the AC50 [8] was 8.87 µM (active).
With `Cc1ccc(S(=O)(=O)N2c3ccccc3-c3c(ssc3=S)C2(C)C)cc1` the EC50 [20] was 2.65 µM (active), the EC50 [21] was > 60 µM (not active) and the AC50 (HEK293 [9]) was 43.5 µM (active).
In the case of `O=C(OCc1cc(=O)oc2cc(O)ccc12)c1cc(S(=O)(=O)N2CCOCC2)ccc1F`, the EC50 [17] is reported as > 91.2 µM (inactive) and the EC50 [18] is reported as > 91.2 µM (inactive).
In the case of `CCS(=O)(=O)c1ccc2oc(Nc3ccccc3C)nc2c1`, the AC50 (HeLa) is reported as 78.7 µM (active).
